Measured values: patent publication US20240254186A1, “GLP-1 Receptor Agonists Having Improved Pharmacological and Drug Delivery Properties” (priority 2021, published 2024)
pEC50: −log10 of the molar value. Read-outs that look alike come from different tables or passages of the source. Numbered stars: 1 amine (or outer) side, 2 acyl side, 3 side chain; on linkers, the order of the positions; unused ones are H or OH. Square brackets hold non-standard residues; d marks the D form. Side chains are listed from the residue outwards. Peptide text beside a SMILES is read from it. * marks the point of attachment. Dap(Nα-HOOC(CH2)16CO)OH = O=C(O)CCCCCCCCCCCCCCCCC(=O)N[C@@H](CN*)C(=O)O; X5 = O=C(O)CCCCCCCCCCCCCCCc1cn(-c2ccc(C[C@H](N[*:1])C(=O)[*:2])cc2)nn1; X3 = O=C(O)CCCCCCCCCCCCCCCc1cnnn1-c1ccc(C[C@H](N[*:1])C(=O)[*:2])cc1; X6 = O=C([C@H](CCc1ccc(OC(=O)[*:3])cc1)N[*:1])[*:2]; Bip = N[C@@H](Cc1ccc(-c2ccccc2)cc1)C(=O)O; C18 diacid = O=C(O)CCCCCCCCCCCCCCCCC(=O)*; X2 = O=C(CCc1ccc(I)cc1)N[C@@H](CN*)C(=O)O; αMePhe(2-F) = C[C@](N)(Cc1ccccc1F)C(=O)O; αMeF = C[C@](N)(Cc1ccccc1)C(=O)O; αMeP = C[C@@]1(C(=O)O)CCCN1; dDap = NC[C@@H](N)C(=O)O; AEEA = NCCOCCOCC(=O)O; Aib = CC(C)(N)C(=O)O; CO = O=C([*:1])[*:2]

Target: T1, hGLP1 receptor (Homo sapiens, UniProt P43220)
T1 construct: expressed in transfected cells; host or cells: HEK (human embryonic kidney) cells co-expressing hGLP1 receptor and a CRE-Luciferase construct
T1 sequence (P43220 24-463): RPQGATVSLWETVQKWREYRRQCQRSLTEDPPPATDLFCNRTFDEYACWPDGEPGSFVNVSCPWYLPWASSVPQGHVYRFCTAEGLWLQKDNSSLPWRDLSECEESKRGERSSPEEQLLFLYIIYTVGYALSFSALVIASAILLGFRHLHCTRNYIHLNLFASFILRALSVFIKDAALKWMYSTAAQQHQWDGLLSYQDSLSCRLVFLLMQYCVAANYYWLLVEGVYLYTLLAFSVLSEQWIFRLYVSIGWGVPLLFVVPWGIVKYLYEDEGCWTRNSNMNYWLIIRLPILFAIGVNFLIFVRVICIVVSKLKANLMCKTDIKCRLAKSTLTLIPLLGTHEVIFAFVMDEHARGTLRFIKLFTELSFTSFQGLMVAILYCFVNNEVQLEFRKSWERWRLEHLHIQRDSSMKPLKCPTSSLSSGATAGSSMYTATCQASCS
Assay: cAMP HTRF agonist assay in HEK cells co-expressing the hGLP1 receptor and CRE-Luciferase construct
Assay type: cell-based
Conditions: for pEC50: cell annotated (0% albumin), read-out: cAMP EC50; for EC50: read-out: cAMP EC50, nM (0.1% albumin), Table 6, C-terminal PK-modifier conjugates, 0.1% albumin
Protocol: Human embryonic kidney cells (HEK) co-expressing the hGLP1 receptor and CRE-Luciferase construct were used to determine agonist potency in this assay. The cells were thawed briefly at 37° C., transferred to a sterile tube and re-suspended in complete media at 37° C. Cells were centrifuged at 1000 rpm for 5 minutes and cells collected; cells were re-suspended in assay buffer consisting of DPBS (GIBCO) with 500 μM of the phosphodiesterase inhibitor IBMX. […] The optimal cell density was determined to be 1000 cells/well; cells were added to wells in 384-well plates containing appropriate pre-prepared dilutions of compounds (test peptides or reference compound exendin-4), sealed and incubated with CO2 for 30 min. Test peptide solutions were diluted from 10 mM stock solutions; for most peptides an initial run was performed in duplicate from a maximal concentration of 1.0 μM, with 11 concentrations tested for each peptide using serial 1:3 dilution from this maximal concentration. […] The agonist assay was a homogeneous time-resolved fluorescence (HTRF) assay (Cisbio).
Following incubation of the cells for 30 minutes with test or reference peptides, 5 μL of the cAMP acceptor cAMP-d2, prepared previously as a working solution from frozen stock (1:20 dilution), was added to each well of the assay plate, along with 5 μL of anti-cAMP antibody-cryptate working solution (diluted 1:20 from frozen stock). The wells were incubated for 1 hour at room temperature, and fluorescence was then read at 665 and 615 nm with an Envision reader with TRF laser. Data were saved and analyzed using Prism software (GraphPad). Concentration-response analysis was performed using 4-parameter logistic fits of the resulting data, and EC50 values obtained for each test and reference compound.

Row | Structure (SMILES) | EC50 [nM] | also measured
1 | C[C@@H](O)[C@H](NC(=O)CNC(=O)[C@H](CCC(=O)O)NC(=O)[C@]1(C)CCCN1C(=O)[C@@H](N)Cc1c[nH]cn1)C(=O)N[C@@](C)(Cc1ccccc1F)C(=O)N[C@H](C(=O)N[C@@H](CO)C(=O)N[C@@H](CC(=O)O)C(=O)N[C@@H](Cc1ccc(-n2nncc2CCCCCCCCCCCCCCCC(=O)O)cc1)C(=O)N[C@@H](Cc1ccc(-c2ccccc2)cc1)C(N)=O)[C@@H](C)O [4-71-i2, H2N-His-α-MePro-Glu-Gly-Thr-α-MePhe(2-F)-Thr-Ser-Asp-FN3(C18 acid)-Bip-C(O)NH2] (H-H[αMeP]EGT[αMePhe(2-F)]TSD[X3][Bip]-NH2) | – | pEC50 (Table 6): 10.00
2 | C[C@@H](O)[C@H](NC(=O)CNC(=O)[C@H](CCC(=O)O)NC(=O)[C@]1(C)CCCN1C(=O)[C@@H](N)Cc1c[nH]cn1)C(=O)N[C@@](C)(Cc1ccccc1F)C(=O)N[C@H](C(=O)N[C@@H](CO)C(=O)N[C@@H](CC(=O)O)C(=O)N[C@@H](Cc1ccc(-n2cc(CCCCCCCCCCCCCCCC(=O)O)nn2)cc1)C(=O)N[C@@H](Cc1ccc(-c2ccccc2)cc1)C(N)=O)[C@@H](C)O [4-71-i1, H2N-His-α-MePro-Glu-Gly-Thr-α-MePhe(2-F)-Thr-Ser-Asp-FN3(C18 acid)-Bip-C(O)NH2] (H-H[αMeP]EGT[αMePhe(2-F)]TSD[X5][Bip]-NH2) | – | pEC50 (Table 6): 11.05
3 | C[C@@H](O)[C@H](NC(=O)CNC(=O)[C@H](CCC(=O)O)NC(=O)C(C)(C)NC(=O)[C@@H](N)Cc1c[nH]cn1)C(=O)N[C@@](C)(Cc1ccccc1F)C(=O)N[C@H](C(=O)N[C@@H](CO)C(=O)N[C@@H](CC(=O)O)C(=O)N[C@@H](Cc1ccc(-c2ccccc2)cc1)C(=O)N[C@@H](CCc1ccc(OC(=O)NCCOCCOCC(=O)NCCOCCOCC(N)=O)cc1)C(N)=O)[C@@H](C)O [4-38, H2N-His-Aib-Glu-Gly-Thr-α-MePhe(2-F)-Thr-Ser-Asp-Bip-Hph(4-OR4)-C(O)NH2] (H-H[Aib]EGT[αMePhe(2-F)]TSD[Bip][X6]([AEEA-AEEA-NH2])-NH2) | 320 | –
4 | C[C@@H](O)[C@H](NC(=O)CNC(=O)[C@H](CCC(=O)O)NC(=O)C(C)(C)NC(=O)[C@@H](N)Cc1c[nH]cn1)C(=O)N[C@@](C)(Cc1ccccc1F)C(=O)N[C@H](C(=O)N[C@@H](CO)C(=O)N[C@@H](CC(=O)O)C(=O)N[C@@H](Cc1ccc(-c2ccccc2)cc1)C(=O)N[C@H](Cc1ccc(OC(=O)NCCOCCOCC(=O)NCCOCCOCC(=O)NCCOCCOCC(=O)NC[C@H](NC(=O)CCc2ccc(I)cc2)C(=O)O)cc1)C(N)=O)[C@@H](C)O [(D)-4-44, H2N-His-Aib-Glu-Gly-Thr-α-MePhe(2-F)-Thr-Ser-Asp-Bip-D-Tyr(O-R6)-C(O)NH2] (H-H[Aib]EGT[αMePhe(2-F)]TSD[Bip][dY]([CO-AEEA-AEEA-AEEA-X2])-NH2) | 299 | –
5 | C[C@@H](O)[C@H](NC(=O)CNC(=O)[C@H](CCC(=O)O)NC(=O)C(C)(C)NC(=O)[C@@H](N)Cc1c[nH]cn1)C(=O)N[C@@](C)(Cc1ccccc1)C(=O)N[C@H](C(=O)N[C@@H](CO)C(=O)N[C@@H](CC(=O)O)C(=O)N[C@@H](Cc1ccc(-c2ccccc2)cc1)C(=O)N[C@@H](Cc1ccc(-c2ccccc2)cc1)C(N)=O)[C@@H](C)O [3-17, H2N-His-Aib-Glu-Gly-Thr-α-MePhe-Thr-Ser-Asp-Bip-Bip-C(O)NH2] (H-H[Aib]EGT[αMeF]TSD[Bip][Bip]-NH2) | – | pEC50 (Table 1): 10.10
6 | C[C@@H](O)[C@H](NC(=O)CNC(=O)[C@H](CCC(=O)O)NC(=O)C(C)(C)NC(=O)[C@@H](N)Cc1c[nH]cn1)C(=O)N[C@@](C)(Cc1ccccc1F)C(=O)N[C@H](C(=O)N[C@@H](CO)C(=O)N[C@@H](CC(=O)O)C(=O)N[C@@H](Cc1ccc(-c2ccccc2)cc1)C(=O)N[C@H](Cc1ccc(OC(=O)NCCOCCOCC(=O)NCCOCCOCC(=O)NC[C@H](NC(=O)CCCCCCCCCCCCCCCCC(=O)O)C(=O)O)cc1)C(N)=O)[C@@H](C)O [(D)-4-43, H2N-His-Aib-Glu-Gly-Thr-α-MePhe(2-F)-Thr-Ser-Asp-Bip-D-Tyr(O-R5)-C(O)NH2] (H-H[Aib]EGT[αMePhe(2-F)]TSD[Bip][dY]([CO-AEEA-AEEA-Dap(Nα-HOOC(CH2)16CO)OH])-NH2) | 693 | –
7 | C[C@@H](O)[C@H](NC(=O)CNC(=O)[C@H](CCC(=O)O)NC(=O)C(C)(C)NC(=O)[C@@H](N)Cc1c[nH]cn1)C(=O)N[C@@](C)(Cc1ccccc1F)C(=O)N[C@H](C(=O)N[C@@H](CO)C(=O)N[C@@H](CC(=O)O)C(=O)N[C@@H](Cc1ccc(-c2ccccc2)cc1)C(=O)N[C@@H](Cc1ccc(-c2ccccc2)cc1)C(=O)NCCOCCOCC(=O)NCCOCCOCC(=O)N[C@H](CNC(=O)CCCCCCCCCCCCCCCCC(=O)O)C(N)=O)[C@@H](C)O [4-46, H2N-His-Aib-Glu-Gly-Thr-α-MePhe(2-F)-Thr-Ser-Asp-Bip-Bip-C(O)NH-RY8] (H-H[Aib]EGT[αMePhe(2-F)]TSD[Bip][Bip][AEEA][AEEA][dDap](C18 diacid)-NH2) | 5.4 | –
